{"source": "patent US8987201B2", "about": "“Black bear parathyroid hormone and methods of using black bear parathyroid hormone” (Michigan Technological University, priority 2009, dated 2015)", "key": {"[1]": {"system": "ovariectomized (OVX) Sprague-Dawley rats", "assay": "In vivo rat OVX dose response study: bone μCT and bone strength", "method": "Ninety female, 3-month old Sprague-Dawley rats were obtained. Eighty (80) of the rats were ovariectomized (OVX) and ten (10) underwent a sham OVX procedure (sham OVX) in which the ovaries were left in the animal. The OVX animals were randomly assigned into groups of ten for further experiments.\nFollowing the actual or sham OVX procedure, all animals were untreated for 6 weeks to allow bone loss. After the 6 week period of bone loss, groups of animals were injected for a six- or eight-week period (daily for five days per week) with vehicle (saline) or 3, 10, or 30 μg/kg bear or human PTH1-34. […] The sham OVX group as well as one group of actual OVX rats were euthanized at six weeks while the remaining animals were euthanized at fourteen weeks following the OVX procedure. Samples were obtained from the euthanized animals for further analysis.\nThree-dimensional images of bones were obtained using micro-computed tomography (μCT). The three-dimensional images were then used to quantify bone parameters, as explained below. The measurements were conducted on a 1.6 mm-thick region that begins at a position 2 mm from the growth plate (FIG. 8). Bone samples were obtained and analyzed from sham (FIG. 9A, “Sham OVX 6 weeks”) and actual (FIG. 9B, “OVX 6 weeks”) OVX rats that were euthanized at six weeks after the procedure, as well as a group of actual OVX rats that were euthanized at fourteen weeks after the procedure (FIG. 9C, “OVX 14 weeks”). The rats in the OVX 14 group were given injections of vehicle (saline) for 8 weeks following the 6 week bone loss period, in parallel with the PTH1-34 injections for eight weeks (FIGS. 9D, 9E, and 9F). The samples shown in FIGS. 9D, 9E, and 9F were obtained from rats that were injected for eight weeks following the 6 week bone loss period, with 3, 10, or 30 μg/kg black bear PTH1-34 (“bbPTH”), respectively."}, "[2]": {"system": "human fetal osteoblasts (hFOB)", "assay": "Serum starvation cell death in human fetal osteoblasts (trypan blue)", "format": "cell-based", "settings": "100 nM for 1 hour before serum starvation for 24 hours, preliminary studies, p<0.0001", "method": "All PTH peptides used in the current study attenuated apoptotic signaling induced by serum starvation in vitro (FIG. 19). bbPTH 1-34 reduced apoptotic signaling in pre-osteoblastic cells more than human PTH (FIG. 19). Recently, we found similar results with preliminary studies in human fetal osteoblasts (hFOB). Serum starvation for 24 hours increased cell death in hFOB (confirmed via trypan blue staining), but pretreatment of hFOB cells with 100 nM PTH 1-34 or 1-84 for 1 hour before starvation reduced percent cell death (percentage change in cell death compared to vehicle pretreatment, hPTH 1-34: −18%, bbPTH 1-34: −25%, hPTH 1-84: −17%, bbPTH 1-84: −21%; p<0.0001; data not shown). […] However, although bbPTH 1-84 was less anti-apoptotic than bbPTH 1-34 and hPTH 1-34 in vitro (FIG. 19) it caused the greatest increases in cortical and trabecular bone mass in the in vivo studies (Table 1, Table 2)."}, "Male Swiss-Webster mice": {"system": "Male Swiss-Webster mice", "assay": "Cortical bone mineral content (ash fraction) and geometrical properties of the femur", "format": "in vivo, mouse", "settings": "femoral midshaft, 2.5 nmol/kg s.c., 8 weeks, normalized by body mass, SD in parentheses", "excerpt": "All handling procedures and experiments were approved by the Michigan Technological University Institutional Animal Care and Use Committees. Male Swiss-Webster mice were obtained from a commercial breeder (Harlan, Indianapolis, Ind.). All animals were maintained on a 12-h light/12-h dark cycle, and were permitted free access to water and food containing 0.95% calcium (Purina Rodent Diet #5001).\nIn the first experiment, 11 wk old mice received daily (5 days/week) subcutaneous injections of 2.5 nmol/kg PTH 1-34 (hPTH 1-34 or bbPTH 1-34) or acidic saline vehicle (0.15 M NaCl+0.001 N HCl) for 8 weeks (n=10 mice/group). In the second experiment, 12 wk old mice received daily (5 days/week) subcutaneous injections of 2.5 nmol/kg PTH 1-84 (hPTH 1-84 or bbPTH 1-84) or acidic saline vehicle for 8 weeks (n=10 mice/group). All PTH- and vehicle-treated animals received subcutaneous injections of calcein at a dosage of 10 mg/kg on days 12 and 3 before death to label mineralizing bone surfaces. Twenty-four hours following the last treatment injection, mice were sacrificed by carbon dioxide asphyxiation. Right femurs were fixed in 10% neutral buffered formalin. Left femurs were wrapped in 0.15M saline soaked gauze and stored at −20 deg C. Left tibias were stored in 70% ethanol at 4 deg C.\nFollowing the bending test, the left femoral diaphyses were ashed in a furnace to determine mineral content (ash fraction). Right femoral diaphyses were embedded in methyl methacrylate and sectioned with a diamond saw to expose the midshaft cross-section. Images of the midshaft cross-sections were captured using a digital camera (Spot Insight QE, Diagnostic Instruments Inc., Sterling Heights, Mich.), and Scion Image analysis software (Scion Corporation, Frederick, Md.) was used to calculate the periosteal area (Ps.Ar), cortical area (Ct.Ar), and endosteal area (Es.Ar) for each sample. Cortical bone thickness (Ct.Th) was calculated in 0.1 mm increments for each anatomical quadrant and for the entire cross-section using image analysis software (Bioquant Osteo, Nashville, Tenn.). Thin sections from the midshaft of the right femur were ground to a thickness of 50 μm and mounted on glass slides. Images of calcein labels were captured at 100× magnification and periosteal and endosteal mineral apposition rates (Ps.MAR and Es.MAR, respectively) and mineralizing surfaces (Ps.MS/BS and Es.MS/MS) were quantified (Bioquant) for each femur.\nAll bone geometrical, architectural, and mineral properties were normalized by body mass to account for potential variation in animal size (31-33). Trabecular bone properties quantified by micro-computed tomography were compared by ANOVA between vehicle, bear, and human PTH-treated mice within each study (PTH 1-34 or PTH 1-84). The microCT parameters were not directly compared between the PTH 1-34 and PTH 1-84 studies because analyses were conducted on different microCT machines. For all other bone properties, all six experimental groups (from both the PTH 1-34 and PTH 1-84 studies) were compared with ANOVA and Fisher's PLSD. A significance of p<0.05 was used for all comparisons."}}, "note": "Marks after values point to notes of the source that are not given here."}
{"substance": "human PTH 1-34 [hPTH 1-34]", "values": [{"measurement": "average thickness of the trabecular struts (Tb.Th) compared to vehicle-treated controls", "setting": "[1]; OVX rats", "value": "significantly (p<0.05) increased"}, {"measurement": "increasing tibial cortical bone volume (BV), human vs bear", "setting": "[1]; OVX rats", "value": "better than bear PTH1-34"}, {"measurement": "trabecular bone mineralization (M.Dn) vs vehicle (saline) alone", "setting": "[1]; OVX rats", "value": "significantly (p<0.05) greater trabecular bone mineralization"}, {"measurement": "bone mineral apparent density, hPTH vs bbPTH", "setting": "[1]; OVX rats, 30 μg/kg", "value": "significantly higher (p<0.05)"}, {"measurement": "bone mineral apparent density (App.Dn) vs vehicle (saline) alone", "setting": "[1]; OVX rats, 3, 10, or 30 μg/kg", "value": "significantly higher (p<0.05)"}, {"measurement": "bone volume as a fraction of total volume (BV/TV) vs vehicle (saline) alone", "setting": "[1]; OVX rats, 3, 10, or 30 μg/kg", "value": "significantly (p<0.05) greater bone volume fraction than treatment with vehicle (saline) alone at all three levels tested"}, {"measurement": "bone volume fraction, human PTH vs bear PTH", "setting": "[1]; OVX rats, highest dose of 30 μg/kg", "value": "significantly (p<0.05) greater"}, {"measurement": "tibial cortical porosity relative to vehicle (saline) alone", "setting": "[1]; OVX rats, middle (10 μg/kg) and higher doses (30 μg/kg)", "value": "significantly (p<0.05) decreased"}, {"measurement": "femoral cortical bone strength relative to vehicle-treated controls", "setting": "[1]; OVX rats, only higher doses (30 μg/kg)", "value": "significant (p<0.05) increases"}, {"measurement": "percentage change in cell death compared to vehicle pretreatment", "setting": "[2]", "value": "−18", "unit": "%"}, {"measurement": "Ct.Ar", "setting": "Male Swiss-Webster mice", "value": "30.7 (3.0) mm^2/kg"}, {"measurement": "Ct.Th", "setting": "Male Swiss-Webster mice", "value": "2.22 (0.20)^b mm/kg"}, {"measurement": "Es.Ar", "setting": "Male Swiss-Webster mice", "value": "24.7 (3.7) mm^2/kg"}, {"measurement": "Ps.Ar", "setting": "Male Swiss-Webster mice", "value": "55.3 (5.2)^b,c mm^2/kg"}]}
